According to PubChem BioAssay AID194 (DTP/NCI, 2004):
Inconclusive results are not listed.

Tested on: BDF1 mice, B16 melanoma s.c., survival/tumor T/C
Test: NCI In Vivo Anticancer Drug Screen. Data for tumor model B16 Melanoma (subcutaneous) in B6D2F1 (BDF1) mice
Conditions: endpoint: median survival time, higher = longer survival
Protocol: The antitumor activity of compounds was measured in mice bearing transplantable tumors. Survival or tumor size were measured and the results are expressed as the measurement made in the treated group (T) divided by the measurement made in the vehicle treated control group (C). The tumor model used in this assay is B16 Melanoma (subcutaneous) in B6D2F1 (BDF1) mice

O=NN(CCF)C(=O)NC1CCC(=O)NC1=O (centres undefined)
T/C (dose: 3.11 mg/kg/injection, schedule: Q01DX007 (ip), vehicle: Klucel (hydroxypropylcellulose) (HPC)): 121 % of control | T/C (dose: 5.18 mg/kg/injection, schedule: Q01DX007 (ip), vehicle: Klucel (hydroxypropylcellulose) (HPC)): 124 % of control | T/C (dose: 8.64 mg/kg/injection, schedule: Q01DX007 (ip), vehicle: Klucel (hydroxypropylcellulose) (HPC)): 164 % of control

CN(C)c1nc(N(C)C)nc(N(C)C)n1
T/C (dose: 20.0 mg/kg/injection, schedule: Q01DX009 (ip), vehicle: Klucel (hydroxypropylcellulose) (HPC)): 115 % of control | T/C (dose: 40.0 mg/kg/injection, schedule: Q01DX009 (ip), vehicle: Klucel (hydroxypropylcellulose) (HPC)): 118 % of control | T/C (dose: 80.0 mg/kg/injection, schedule: Q01DX009 (ip), vehicle: Klucel (hydroxypropylcellulose) (HPC)): 111 % of control | T/C (dose: 160.0 mg/kg/injection, schedule: Q01DX009 (ip), vehicle: Klucel (hydroxypropylcellulose) (HPC)): 115 % of control

NNC(=O)c1ccncc1
T/C (dose: 64.0 mg/kg/injection, schedule: Q01DX009 (ip), vehicle: saline): 116 % of control | T/C (dose: 128.0 mg/kg/injection, schedule: Q01DX009 (ip), vehicle: saline): 88 % of control

Nc1ccc(N=Nc2ccccc2)c(N)c1
T/C (dose: 50.0 mg/kg/injection, schedule: Q01DX009 (ip), vehicle: Klucel (hydroxypropylcellulose) (HPC)): 91 % of control | T/C (dose: 100.0 mg/kg/injection, schedule: Q01DX009 (ip), vehicle: Klucel (hydroxypropylcellulose) (HPC)): 106 % of control

CCN1/C(=C/C=C/C=C/c2sc3ccccc3[n+]2CC)Sc2ccccc21
T/C (dose: 63.0 micrograms/kg/injection, schedule: Q01DX009 (ip), vehicle: saline): 117 % of control | T/C (dose: 125.0 micrograms/kg/injection, schedule: Q01DX009 (ip), vehicle: saline): 120 % of control

CCCCNCCCNCCCNC(=O)c1csc(-c2csc(CCNC(=O)C(NC(=O)C(C)C(O)C(C)NC(=O)C(NC(=O)c3nc(C(CC(N)=O)NCC(N)C(N)=O)nc(N)c3C)C(OC3OC(CO)C(O)C(O)C3OC3OC(CO)C(O)C(OC(N)=O)C3O)c3cnc[nH]3)C(C)O)n2)n1 (centres undefined)
T/C (dose: 0.31 mg/kg/injection, schedule: Q01DX009 (ip), vehicle: water): 86 % of control | T/C (dose: 0.62 mg/kg/injection, schedule: Q01DX009 (ip), vehicle: water): 154 % of control | T/C (dose: 1.25 mg/kg/injection, schedule: Q01DX009 (ip), vehicle: water): 120 % of control | T/C (dose: 2.5 mg/kg/injection, schedule: Q01DX009 (ip), vehicle: water): 122 % of control | T/C (dose: 5.0 mg/kg/injection, schedule: Q01DX009 (ip), vehicle: water): 158 % of control

CO[C@H](C(=O)[C@@H](O)[C@@H](C)O)[C@@H]1Cc2cc3cc(OC4CC(OC5CC(O)C(O)C(C)O5)C(O)C(C)O4)c(C)c(O)c3c(O)c2C(=O)[C@H]1OC1CC(OC2CC(OC3CC(C)(O)C(O)C(C)O3)C(O)C(C)O2)C(O)C(C)O1 (some centres undefined)
T/C (dose: 0.12 mg/kg/injection, schedule: Q01DX009 (ip), vehicle: saline): 100 % of control | T/C (dose: 0.25 mg/kg/injection, schedule: Q01DX009 (ip), vehicle: saline): 114 % of control | T/C (dose: 0.5 mg/kg/injection, schedule: Q01DX009 (ip), vehicle: saline): 116 % of control | T/C (dose: 1.0 mg/kg/injection, schedule: Q01DX009 (ip), vehicle: saline): 118 % of control | T/C (dose: 3.8 micrograms/kg/injection, schedule: Q01DX009 (ip), vehicle: water): 104 % of control | T/C (dose: 7.5 micrograms/kg/injection, schedule: Q01DX009 (ip), vehicle: water): 107 % of control | T/C (dose: 15.0 micrograms/kg/injection, schedule: Q01DX009 (ip), vehicle: water): 101 % of control | T/C (dose: 30.0 micrograms/kg/injection, schedule: Q01DX009 (ip), vehicle: water): 114 % of control | T/C (dose: 60.0 micrograms/kg/injection, schedule: Q01DX009 (ip), vehicle: water): 93 % of control | T/C (dose: 120.0 micrograms/kg/injection, schedule: Q01DX009 (ip), vehicle: water): 91 % of control | T/C (dose: 250.0 micrograms/kg/injection, schedule: Q01DX009 (ip), vehicle: water): 86 % of control

Cn1ncc2c(N)ncnc21
T/C (dose: 2.0 mg/kg/injection, schedule: Q01DX009 (ip), vehicle: Klucel (hydroxypropylcellulose) (HPC)): 104 % of control | T/C (dose: 4.0 mg/kg/injection, schedule: Q01DX009 (ip), vehicle: Klucel (hydroxypropylcellulose) (HPC)): 106 % of control | T/C (dose: 8.0 mg/kg/injection, schedule: Q01DX009 (ip), vehicle: Klucel (hydroxypropylcellulose) (HPC)): 115 % of control

O=P1(NCCCl)OCCCN1CCCl (centres undefined)
T/C (dose: 300.0 mg/kg/injection, schedule: Q01DX001 (ip), vehicle: saline): 154 % of control | T/C (dose: 460.0 mg/kg/injection, schedule: Q01DX001 (ip), vehicle: saline): 150 % of control
